≈ marks a conversion by molar mass, not a printed value. Read-outs that look alike come from different tables or passages of the source.
Tests used:
[1] = tested on: M. tuberculosis H37Rv; experiment: MIC against M. tuberculosis H37Rv in 7H9 medium with various supplements; type: cell-based, Mycobacterium tuberculosis; settings: for fold more active than zoliflodacin against M. tuberculosis: H37Rv, across the MIC media; for MIC: Mycobacterium tuberculosis, H37RV
[2] = tested on: M. tuberculosis H37Rv; experiment: microbe, parasite or virus in culture; type: cell-based; settings: Mycobacterium tuberculosis, read-out: MIC90, H37Rv
[3] = tested on: M. tuberculosis ΔcydA; type: cell-based
[4] = read-out: MIC, DPPC/Chol/BSA/TX

| Structure (SMILES) | fold more active than zoliflodacin against M. tuberculosis [1] | MIC ([1]; read-out: MIC, ADC/GLU/TW) | MIC ([1]; read-out: MIC, DPPC/CAS/TX) | MIC [1, 4] | MIC ([1]; read-out: MIC, GLU/BSA/TX) | MIC ([1]; read-out: MIC, GLU/CAS/TX) | MIC90 [2] | MIC90, ΔcydA [3] | activity in the M. tuberculosis MIC assays ([1]; any of the MIC media) |
| --- | --- | --- | --- | --- | --- | --- | --- | --- | --- |
| C[C@@H]1CN(c2noc3c(F)c4c(cc23)CC2(C(=O)NC(=O)NC2=O)[C@H]2[C@H](C)O[C@H](C)CN42)C(=O)O1 [Compound 5] | about 2 fold | 2 µM (≈ 0.975 µg/mL) | 12 µM (≈ 5.85 µg/mL) | 6.2 µM (≈ 3.02 µg/mL) | 9.4 µM (≈ 4.58 µg/mL) | 4.7 µM (≈ 2.29 µg/mL) | – | – | – |
| CC1CN2c3c(cc4c(N5C(=O)OC(C)C5C)noc4c3F)CC3(C(=O)NC(=O)NC3=O)C2C(C)O1 (centres unmarked) [Compound 7] | – | 3.9 µM (≈ 1.96 µg/mL) | 37 µM (≈ 18.6 µg/mL) | 19 µM (≈ 9.53 µg/mL) | 25 µM (≈ 12.5 µg/mL) | 12 µM (≈ 6.02 µg/mL) | – | – | – |
| CC1CN2c3c(cc4c(N5C(=O)OCC5CO)noc4c3F)CC3(C(=O)NC(=O)NC3=O)C2C(C)O1 (centres unmarked) [Compound 2] | – | 2 µM (≈ 1.01 µg/mL) | 6.2 µM (≈ 3.12 µg/mL) | 4.7 µM (≈ 2.37 µg/mL) | 6.2 µM (≈ 3.12 µg/mL) | 3.1 µM (≈ 1.56 µg/mL) | – | – | – |
| CC(C)=CCC/C(C)=C/CNCCNC1C2CC3CC(C2)CC1C3 (centres unmarked) [SQ109] | – | – | – | – | – | – | 0.49 µM (≈ 0.162 µg/mL) | – | – |
| C[C@@H]1CN2c3c(cc4c(-n5ncnc5NCCN(C)C)noc4c3F)CC3(C(=O)NC(=O)NC3=O)[C@H]2[C@H](C)O1 [Compound 15] | – | 2 µM (≈ 1.08 µg/mL) | 1.6 µM (≈ 0.866 µg/mL) | 3.1 µM (≈ 1.68 µg/mL) | 1.6 µM (≈ 0.866 µg/mL) | 2.3 µM (≈ 1.25 µg/mL) | – | – | – |
| COCC1COC(=O)N1c1noc2c(F)c3c(cc12)CC1(C(=O)NC(=O)NC1=O)C1C(C)OC(C)CN31 (centres unmarked) [Compound 8] | – | 7.8 µM (≈ 4.04 µg/mL) | 25 µM (≈ 12.9 µg/mL) | 12 µM (≈ 6.21 µg/mL) | 25 µM (≈ 12.9 µg/mL) | 19 µM (≈ 9.83 µg/mL) | – | – | – |
| CO[C@H]1/C=C/O[C@@]2(C)Oc3c(C)c(O)c4c(O)c(c(/C=N/N5CCN(C)CC5)c(O)c4c3C2=O)NC(=O)/C(C)=C\C=C\[C@H](C)[C@H](O)[C@@H](C)[C@@H](O)[C@@H](C)[C@H](OC(C)=O)[C@@H]1C [Rif, rifampicin] | – | – | – | – | – | – | 0.002 µM (≈ 0.00165 µg/mL) | 0.0046 µM (≈ 0.00379 µg/mL) | – |
| C[C@@H]1CN2c3c(cc4c(-n5ncnc5NCCO)noc4c3F)CC3(C(=O)NC(=O)NC3=O)[C@H]2[C@H](C)O1 [Compound 14] | 16 fold | 0.24 µM (≈ 0.123 µg/mL) | 1.6 µM (≈ 0.823 µg/mL) | 1.2 µM (≈ 0.617 µg/mL) | 1.2 µM (≈ 0.617 µg/mL) | 0.6 µM (≈ 0.309 µg/mL) | – | – | – |
| C[C@@H]1CN2c3c(cc4c(-n5ncnc5N5CCOC[C@H]5C)noc4c3F)CC3(C(=O)NC(=O)NC3=O)[C@H]2[C@H](C)O1 [Compound 19] | – | 16 µM (≈ 8.87 µg/mL) | > 50 µM | > 50 µM | > 50 µM | > 50 µM | – | – | – |
| CC1CN2c3c(cc4c(N5CC(c6ccccn6)OC5=O)noc4c3F)CC3(C(=O)NC(=O)NC3=O)C2C(C)O1 (centres unmarked) [Compound 12] | – | > 50 µM | > 50 µM | > 50 µM | > 50 µM | > 50 µM | – | – | – |
| C[C@@H]1CN2c3c(cc4c(C5=N[C@H]6COC[C@H]6N5)noc4c3F)CC3(C(=O)NC(=O)NC3=O)[C@H]2[C@H](C)O1 [Compound 21] | – | 3.4 µM (≈ 1.69 µg/mL) | 9.4 µM (≈ 4.69 µg/mL) | 9.4 µM (≈ 4.69 µg/mL) | 6.2 µM (≈ 3.09 µg/mL) | 6.2 µM (≈ 3.09 µg/mL) | – | – | – |
| COc1ncnn1-c1noc2c(F)c3c(cc12)CC1(C(=O)NC(=O)NC1=O)[C@H]1[C@H](C)O[C@H](C)CN31 [Compound 16] | – | 2 µM (≈ 0.971 µg/mL) | 12 µM (≈ 5.83 µg/mL) | 9.4 µM (≈ 4.56 µg/mL) | 12 µM (≈ 5.83 µg/mL) | 9.4 µM (≈ 4.56 µg/mL) | – | – | – |
| CC(=O)NCC1CN(c2cc3c(c(F)c2F)N2C[C@H](C)O[C@H](C)[C@H]2C2(C3)C(=O)NC(=O)NC2=O)C(=O)O1 (some centres unmarked) [Compound 24] | – | > 50 µM | > 50 µM | > 50 µM | > 50 µM | > 50 µM | – | – | did not show activity at the highest concentration tested |
| CNc1ncnn1-c1noc2c(F)c3c(cc12)CC1(C(=O)NC(=O)NC1=O)[C@H]1[C@H](C)O[C@H](C)CN31 [Compound 17] | – | 0.9 µM (≈ 0.436 µg/mL) | 6.2 µM (≈ 3 µg/mL) | 6.2 µM (≈ 3 µg/mL) | 9.4 µM (≈ 4.55 µg/mL) | 3.1 µM (≈ 1.5 µg/mL) | – | – | – |
| COCC1[C@@H](C)OC(=O)N1c1noc2c(F)c3c(cc12)CC1(C(=O)NC(=O)NC1=O)[C@H]1[C@H](C)O[C@H](C)CN31 (some centres unmarked) [Compound 11] | – | 31 µM (≈ 16.5 µg/mL) | > 50 µM | > 50 µM | > 50 µM | > 50 µM | – | – | – |
